Measured values reported in the supplement of paper PMC10307832.

Columns and labels:
Experiment in all cases: relative viability (nuclei count vs DMSO), 5 days (fraction); higher = more cells survive
CUDC-101 + Linsitinib = compound: C#Cc1cccc(Nc2ncnc3cc(OC)c(OCCCCCCC(=O)NO)cc23)c1 [CUDC-101] + C[C@]1(O)C[C@@H](c2nc(-c3ccc4ccc(-c5ccccc5)nc4c3)c3c(N)nccn32)C1 [Linsitinib] (partner 1 µM)
Summary of the method: (§1)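 Five library-drug doses in √10 steps were combined with a fixed anchor-drug dose, or a single drug was given alone, by pin tool to lung cancer cell lines in 1536-well plates the day after seeding. Nuclei were stained and counted after 5 days. Relative viability is the nuclei count in treated wells over that in vehicle wells, taken as the median of duplicate plates.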

CUDC-101 + Pemetrexed = compound: C#Cc1cccc(Nc2ncnc3cc(OC)c(OCCCCCCC(=O)NO)cc23)c1 [CUDC-101] + Nc1nc2[nH]cc(CCc3ccc(C(=O)N[C@@H](CCC(=O)O)C(=O)O)cc3)c2c(=O)[nH]1 [Pemetrexed] (partner 0.2 µM)
Summary of the method: as §1

[1] = compound: C1=CC=C2C(=C1)N=C(S2)C(C#N)C3=NC(=NC=C3)NCCC4=CN=CC=C4 + C[C@@H](Oc1cc(-c2cnn(C3CCNCC3)c2)cnc1N)c1c(Cl)ccc(F)c1Cl [Crizotinib] (partner 1 µM)
Summary of the method: as §1

[2] = compound: C1=CC=C2C(=C1)N=C(S2)C(C#N)C3=NC(=NC=C3)NCCC4=CN=CC=C4 + Cc1cc(Nc2cc(N3CCN(C)CC3)nc(Sc3ccc(NC(=O)C4CC4)cc3)n2)n[nH]1 [Tozasertib] (partner 0.1 µM)
Summary of the method: as §1

| Cell Line | relative viability (CUDC-101 + Linsitinib; first compound 0.01 µM) | relative viability (CUDC-101 + Linsitinib; first compound 0.03162 µM) | relative viability (CUDC-101 + Linsitinib; first compound 0.1 µM) | relative viability (CUDC-101 + Linsitinib; first compound 0.3162 µM) | relative viability (CUDC-101 + Linsitinib; first compound 1 µM) | relative viability (CUDC-101 + Pemetrexed; first compound 0.01 µM) | relative viability (CUDC-101 + Pemetrexed; first compound 0.03162 µM) | relative viability (CUDC-101 + Pemetrexed; first compound 0.1 µM) | relative viability (CUDC-101 + Pemetrexed; first compound 0.3162 µM) | relative viability (CUDC-101 + Pemetrexed; first compound 1 µM) | relative viability ([1]; first compound 0.005 µM) | relative viability ([1]; first compound 0.01581 µM) | relative viability ([1]; first compound 0.05 µM) | relative viability ([1]; first compound 0.1581 µM) | relative viability ([1]; first compound 0.5 µM) | relative viability ([2]; first compound 0.005 µM) | relative viability ([2]; first compound 0.01581 µM) | relative viability ([2]; first compound 0.05 µM) | relative viability ([2]; first compound 0.1581 µM) | relative viability ([2]; first compound 0.5 µM) |
| --- | --- | --- | --- | --- | --- | --- | --- | --- | --- | --- | --- | --- | --- | --- | --- | --- | --- | --- | --- | --- |
| HCC-366 | 0.658 | 0.344 | 0.741 | 0.607 | 0.528 | 0.163 | 0.157 | 0.137 | 0.177 | 0.201 | 0.24 | 0.458 | 0.564 | 0.844 | 0.378 | 0.102 | 0.087 | 0.075 | 0.0798 | 0.0706 |
| NCI-H838 | 1.08 | 0.85 | 1.08 | 1.06 | 0.898 | 0.332 | 0.248 | 0.257 | 0.26 | 0.198 | 0.546 | 0.87 | 0.817 | 0.861 | 0.555 | 0.28 | 0.289 | 0.243 | 0.282 | 0.223 |
| NCI-H520 | 0.997 | – | 1.05 | 0.982 | 0.485 | 0.711 | 0.755 | 0.774 | 0.608 | 0.342 | 0.564 | 0.856 | 0.947 | 0.882 | 0.569 | 0.406 | 0.431 | 0.467 | 0.376 | 0.421 |
| NCI-H358 | 0.849 | 0.71 | 0.793 | 0.646 | 0.323 | 0.181 | 0.187 | 0.166 | 0.161 | 0.154 | 0.678 | 0.539 | 0.533 | 0.621 | 0.609 | 0.084 | 0.0964 | 0.0992 | 0.109 | 0.0865 |
| HOP-62 | 1.06 | 0.992 | 0.842 | 0.853 | 0.596 | 0.295 | 0.355 | 0.346 | 0.349 | 0.311 | 0.779 | 0.815 | 0.675 | 1.01 | 0.725 | 0.291 | 0.42 | 0.398 | 0.366 | 0.372 |
| NCI-H1651 | 1.14 | 0.866 | 0.996 | 1.04 | 0.912 | 0.614 | 0.579 | 0.579 | 0.577 | 0.523 | 0.746 | 0.883 | 0.855 | 0.864 | 0.849 | 0.618 | 0.793 | 0.518 | 0.661 | 0.457 |
| NCI-H460 | 0.928 | 0.648 | 0.901 | 0.757 | 0.595 | 0.0606 | 0.0635 | 0.0676 | 0.0669 | 0.0703 | – | 0.908 | 0.71 | 0.873 | 0.902 | 0.396 | 0.282 | 0.302 | 0.204 | 0.0413 |
| NCI-H1734 | 0.948 | 0.796 | 0.858 | 0.961 | 0.704 | 0.414 | 0.407 | 0.392 | 0.465 | 0.39 | 0.555 | 0.734 | 0.684 | 0.693 | 0.741 | – | 0.247 | 0.248 | 0.264 | 0.267 |
